For the assay, the system named is B6C3F1 mice, B16 melanoma ip, median survival T/C. Nature of the assay: NCI In Vivo Anticancer Drug Screen. Data for tumor model B16 Melanoma (intraperitoneal) in B6C3F1 mice. To be noted: endpoint: median survival time, higher = longer survival. In a few lines:
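Antitumor effect was judged in mice with transplanted tumors by dividing the treated group's survival measure by that of vehicle controls.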

Setting [1] is: dose: 50.0 mg/kg/injection, schedule: Q01DX009 (ip), vehicle: saline with Tween-80.
[2] abbreviates: dose: 100.0 mg/kg/injection, schedule: Q01DX009 (ip), vehicle: saline with Tween-80.
Setting [3] is: dose: 200.0 mg/kg/injection, schedule: Q01DX009 (ip), vehicle: saline with Tween-80.
Where [4] appears, read: dose: 25.0 mg/kg/injection, schedule: Q01DX009 (ip), vehicle: Klucel (hydroxypropylcellulose) (HPC).
[5] abbreviates: dose: 50.0 mg/kg/injection, schedule: Q01DX009 (ip), vehicle: Klucel (hydroxypropylcellulose) (HPC).
Where [6] appears, read: dose: 100.0 mg/kg/injection, schedule: Q01DX009 (ip), vehicle: Klucel (hydroxypropylcellulose) (HPC).
The mark [7] stands for this setting: dose: 12.5 mg/kg/injection, schedule: Q01DX009 (ip), vehicle: saline with Tween-80.
Where [8] appears, read: dose: 25.0 mg/kg/injection, schedule: Q01DX009 (ip), vehicle: saline with Tween-80.
Setting [9] is: dose: 400.0 mg/kg/injection, schedule: Q01DX009 (ip), vehicle: saline with Tween-80.
[10] abbreviates: dose: 3.12 mg/kg/injection, schedule: Q01DX009 (ip), vehicle: distilled water + Tween-80.
Setting [11] is: dose: 25.0 mg/kg/injection, schedule: Q01DX009 (ip), vehicle: distilled water + Tween-80.
The mark [12] stands for this setting: dose: 1.56 mg/kg/injection, schedule: Q01DX009 (ip), vehicle: saline.
Setting [13] is: dose: 3.12 mg/kg/injection, schedule: Q01DX009 (ip), vehicle: saline.
Where [14] appears, read: dose: 6.25 mg/kg/injection, schedule: Q01DX009 (ip), vehicle: saline.

Where “and” joins values, the source holds several entries; their conditions need not be identical. Identical values can stand only once. Toxic doses and inconclusive results are not listed. Where a SMILES comes first, the peptide text is derived from it. The star is where a group is joined. Cbz = O=C(OCc1ccccc1)*; Bn = c1ccc(C*)cc1

`CCSC(=O)N1c2ccc(OC)cc2C=CC1C#N` (stereo not given): the T/C is, setting by setting: under setting [1], 121 % of control and 95 % of control; under setting [2], 124 % of control and 107 % of control; under setting [3], 110 % of control.

Take `CNc1c(NC)n(C)c(=O)n(C)c1=O`: the T/C (dose: 100.0 mg/kg/injection, schedule: Q01DX009 (ip), vehicle: saline) was 92 % of control; the T/C (dose: 200.0 mg/kg/injection, schedule: Q01DX009 (ip), vehicle: saline) is 100 % of control; the T/C (dose: 400.0 mg/kg/injection, schedule: Q01DX009 (ip), vehicle: saline) is 96 % of control.

Consider `O=c1[nH]c(=O)n(C2CC(O)C(CO)O2)cc1Br` (stereo not given), for which the T/C is 92 % of control under setting [4]; 110 % of control under setting [5]; 110 % of control under setting [6]; 116 % of control (dose: 200.0 mg/kg/injection, schedule: Q01DX009 (ip), vehicle: Klucel (hydroxypropylcellulose) (HPC)); 114 % of control (dose: 400.0 mg/kg/injection, schedule: Q01DX009 (ip), vehicle: Klucel (hydroxypropylcellulose) (HPC)); 109 % of control (dose: 800.0 mg/kg/injection, schedule: Q01DX009 (ip), vehicle: Klucel (hydroxypropylcellulose) (HPC)).

With `O=C(CCCN1CCC(C(O)c2ccc(F)cc2)CC1)c1ccc(F)cc1` (stereo not given), the T/C (dose: 1.56 mg/kg/injection, schedule: Q01DX009 (ip), vehicle: saline with Tween-80) was 92 % of control; the T/C (dose: 3.12 mg/kg/injection, schedule: Q01DX009 (ip), vehicle: saline with Tween-80) was 96 % of control; the T/C (dose: 6.25 mg/kg/injection, schedule: Q01DX009 (ip), vehicle: saline with Tween-80) is 103 % of control; the T/C under setting [7] was 92 % of control.

As to `Cc1ccc(NC(=O)Oc2ccc(Br)cc2Br)c([N+](=O)[O-])c1`, the T/C runs as follows: under setting [7], 105 % of control; under setting [8], 104 % of control; under setting [1], 105 % of control; under setting [2], 101 % of control; under setting [3], 103 % of control; under setting [9], 107 % of control.

As for `CCCC(C(CC)CNC(=O)Nc1cccc2ccccc12)N(C)C(=O)Nc1cccc2ccccc12` (stereo not given), the T/C under setting [1] is 99 % of control, the T/C under setting [2] was 95 % of control, the T/C under setting [3] was 102 % of control and the T/C under setting [9] is 95 % of control.

`Cc1c(CNc2ccc(C(=O)NC(CC(=O)O)C(=O)O)cc2)ccc2nc(N)nc(N)c12` (stereo not given): for the setting “dose: 0.18 mg/kg/injection, schedule: Q01DX009 (ip), vehicle: saline with Tween-80”, the T/C was 90 % of control.

`NC(=O)C(Cc1ccccc1)NC(=O)C(CSCc1ccccc1)NC(=O)OCc1ccccc1` (stereo not given) (Cbz-Cys(Bn)-Phe-NH2; configuration not given here): the T/C reads like this: under setting [4], 91 % of control; under setting [5], 109 % of control and 105 % of control; under setting [6], 100 % of control and 103 % of control.

For the compound `CCOC(=O)c1ccc(NN=NCCF)cc1`, the T/C was 123 % of control and 102 % of control (dose: 3.0 mg/kg/injection, schedule: Q01DX009 (ip), vehicle: distilled water + Tween-80); 123 % of control under setting [10]; 112 % of control and 98 % of control (dose: 6.0 mg/kg/injection, schedule: Q01DX009 (ip), vehicle: distilled water + Tween-80); 87 % of control and 103 % of control (dose: 12.0 mg/kg/injection, schedule: Q01DX009 (ip), vehicle: distilled water + Tween-80); 155 % of control (dose: 12.5 mg/kg/injection, schedule: Q01DX009 (ip), vehicle: distilled water + Tween-80); 108 % of control and 101 % of control (dose: 24.0 mg/kg/injection, schedule: Q01DX009 (ip), vehicle: distilled water + Tween-80). Further, the T/C was 198 % of control under setting [11]; 96 % of control and 102 % of control (dose: 48.0 mg/kg/injection, schedule: Q01DX009 (ip), vehicle: distilled water + Tween-80).

Turning to `FC(F)(F)c1ccc2c(c1)N(CCCN1CCN(CCN3CCCCC3)CC1)c1ccccc1S2`, the T/C (dose: 0.78 mg/kg/injection, schedule: Q01DX009 (ip), vehicle: saline) was 94 % of control; the T/C under setting [12] is 109 % of control and 89 % of control; the T/C under setting [13] was 118 % of control and 99 % of control; the T/C under setting [14] was 99 % of control and 101 % of control; the T/C (dose: 12.5 mg/kg/injection, schedule: Q01DX009 (ip), vehicle: saline) is 98 % of control; the T/C (dose: 25.0 mg/kg/injection, schedule: Q01DX009 (ip), vehicle: saline) was 94 % of control.

As to `CC1(C)CC23C4COC(=O)C2CCC1C3CC4=O` (stereo not given), the T/C runs as follows: (dose: 6.25 mg/kg/injection, schedule: Q01DX009 (ip), vehicle: DMSO) 89 % of control; (dose: 12.5 mg/kg/injection, schedule: Q01DX009 (ip), vehicle: DMSO) 90 % of control; (dose: 25.0 mg/kg/injection, schedule: Q01DX009 (ip), vehicle: DMSO) 97 % of control; (dose: 50.0 mg/kg/injection, schedule: Q01DX009 (ip), vehicle: DMSO) 99 % of control; (dose: 100.0 mg/kg/injection, schedule: Q01DX009 (ip), vehicle: DMSO) 88 % of control; (dose: 200.0 mg/kg/injection, schedule: Q01DX009 (ip), vehicle: DMSO) 96 % of control.

With `Nc1nc(Cl)c2ncn(C3OC(CO)C(O)C3O)c2n1` (stereo not given), the T/C under setting [2] is 98 % of control, the T/C under setting [3] was 100 % of control and the T/C under setting [9] was 101 % of control.

With `CC1OC(O[C@H]2C[C@](O)(C(C)O)Cc3c(O)c4c(c(O)c32)C(=O)c2c(O)cccc2C4=O)CC(NC=O)C1O` (stereo not given in full), the T/C is 158 % of control (dose: 0.62 mg/kg/injection, schedule: Q01DX001 (ip), vehicle: water); 185 % of control (dose: 1.25 mg/kg/injection, schedule: Q01DX001 (ip), vehicle: water); 288 % of control (dose: 2.5 mg/kg/injection, schedule: Q01DX001 (ip), vehicle: distilled water + Tween-80); 257 % of control (dose: 2.5 mg/kg/injection, schedule: Q01DX001 (ip), vehicle: water); 170 % of control (dose: 5.0 mg/kg/injection, schedule: Q01DX001 (ip), vehicle: water).

As for `N#CCCSC(=S)C1CCCC1=N` (stereo not given), the T/C by setting is: under setting [7], 103 % of control; under setting [8], 106 % of control; under setting [1], 98 % of control; under setting [2], 106 % of control; under setting [3], 103 % of control; under setting [9], 104 % of control.

For `Cc1cc(NCCCCCCCCNc2cc(C)nc3cc(N(C)C)ccc23)c2ccc(N(C)C)cc2n1`, the T/C reads like this: under setting [10], 105 % of control; (dose: 6.25 mg/kg/injection, schedule: Q01DX009 (ip), vehicle: distilled water + Tween-80) 115 % of control; under setting [11], 121 % of control.

With `C[n+]1c(-c2cccc3ccccc23)c2cc(N)ccc2c2ccccc21`, the T/C was 117 % of control under setting [12], 122 % of control under setting [13] and 119 % of control under setting [14].

Source of the values: PubChem BioAssay AID200 (DTP/NCI, 2004).
